Test results published in patent publication US12655116B2, “Substituted isophthalic acid diamides” (Bayer Aktiengesellschaft, priority 2020, dated 2026).

Legend:
ABUTH [1] = test: Pre-emergence herbicidal action against ABUTH; format: in vivo, Abutilon theophrasti; conditions: Abutilon theophrasti, 504 h, 80 g/ha, scored visually after 3 weeks vs untreated controls (100% = plants have died, 0% = like control plants)
Outline: (§1)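 Seeds sown in sandy loam, soil-covered; compound sprayed on soil surface pre-emergence. Application: WP/EC, 600–800 l/ha, 0.2% wetting agent. Readout: visual % damage at 3 weeks.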

ALOMY = test: Pre-emergence herbicidal action against ALOMY; format: in vivo, Alopecurus myosuroides; conditions: Alopecurus myosuroides, 504 h; 80 g/ha, pre-emergence, scored visually after 3 weeks vs untreated controls (100% = plants have died, 0% = like control plants)
Outline: as §1

AMARE [2] = test: Pre-emergence herbicidal action against AMARE; format: in vivo, Amaranthus retroflexus; conditions: Amaranthus retroflexus, 504 h, scored visually after 3 weeks vs untreated controls, 100% = plants have died, 0% = like control plants
Outline: as §1

AVEFA [3] = test: Pre-emergence herbicidal action against AVEFA; format: in vivo, Avena fatua; conditions: Avena fatua, 504 h; 80 g/ha, pre-emergence
Outline: as §1

ECHCG [4] = test: Pre-emergence herbicidal action against ECHCG; format: in vivo, Echinochloa crus-galli; conditions: Echinochloa crus-galli, 504 h
Outline: as §1

MATIN [5] = test: Pre-emergence herbicidal action against MATIN; format: in vivo, Matricaria inodora; conditions: Tripleurospermum inodorum, 504 h
Outline: as §1

PHBPU [6] = test: Pre-emergence herbicidal action against PHBPU; format: in vivo, Pharbitis purpurea; conditions: Ipomoea purpurea, 504 h, dosage 80 g/ha
Outline: as §1

POLCO = test: Pre-emergence herbicidal action against POLCO; format: in vivo, Polygonum convolvulus; conditions: Fallopia convolvulus, 504 h
Outline: as §1

SETVI [7] = test: Pre-emergence herbicidal action against SETVI; format: in vivo, Setaria viridis; conditions: Setaria viridis, 504 h
Outline: as §1

VERPE [8] = test: Pre-emergence herbicidal action against VERPE; format: in vivo, Veronica persica; conditions: Veronica persica, 504 h, dosage 80 g/ha
Outline: as §1

VIOTR [9] = test: Pre-emergence herbicidal action against VIOTR; format: in vivo, Viola tricolor; conditions: Viola tricolor, 504 h
Outline: as §1

DIGSA [10] = test: Pre-emergence herbicidal action against DIGSA; format: in vivo, Digitaria sanguinalis; conditions: Digitaria sanguinalis, 504 h, dosage 80 g/ha
Outline: as §1

ABUTH [11] = test: Post-emergence herbicidal action against ABUTH; format: in vivo, Abutilon theophrasti; conditions: Abutilon theophrasti, 504 h, visual assessment about 3 weeks after treatment vs untreated controls
Outline: (§2)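 Sandy loam, greenhouse; treatment 2–3 weeks after sowing, one-leaf stage. Aqueous suspension or emulsion from WP/EC sprayed on foliage (600–800 l/ha, 0.2% wetting agent). Readout: visual % action, ~3 weeks.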

AMARE [12] = test: Post-emergence herbicidal action against AMARE; format: in vivo, Amaranthus retroflexus; conditions: Amaranthus retroflexus, 504 h, 20 g/ha, visual assessment about 3 weeks after treatment, 100% = plants have died, 0% = like control plants
Outline: as §2

AVEFA [13] = test: Post-emergence herbicidal action against AVEFA; format: in vivo, Avena fatua; conditions: Avena fatua, 504 h, 20 g/ha, visual assessment about 3 weeks after treatment, 100% = plants have died, 0% = like control plants
Outline: as §2

ECHCG [14] = test: Post-emergence herbicidal action against ECHCG; format: in vivo, Echinochloa crus-galli; conditions: Echinochloa crus-galli, 504 h
Outline: as §2

MATIN [15] = test: Post-emergence herbicidal action against MATIN; format: in vivo, Matricaria inodora; conditions: Tripleurospermum inodorum, 504 h
Outline: as §2

PHBPU [16] = test: Post-emergence herbicidal action against PHBPU; format: in vivo, Pharbitis purpurea; conditions: Ipomoea purpurea, 504 h, dosage 20 g/ha
Outline: as §2

SETVI [17] = test: Post-emergence herbicidal action against SETVI; format: in vivo, Setaria viridis; conditions: Setaria viridis, 504 h
Outline: as §2

VERPE [18] = test: Post-emergence herbicidal action against VERPE; format: in vivo, Veronica persica; conditions: Veronica persica, 504 h, 20 g/ha
Outline: as §2

VIOTR [19] = test: Post-emergence herbicidal action against VIOTR; format: in vivo, Viola tricolor; conditions: Viola tricolor, 504 h
Outline: as §2

DIGSA [20] = test: Post-emergence herbicidal action against DIGSA; format: in vivo, Digitaria sanguinalis; conditions: Digitaria sanguinalis, 504 h
Outline: as §2

SMILES: COc1c(C(=O)Nc2nnnn2C)ccc(C(F)(F)F)c1C(=O)NC1CC1 [Example 1-58]
- pest or weed control at 80 g/ha (ABUTH [1]): 80%
- pest or weed control at 80 g/ha (ALOMY): 90%
- pest or weed control at 20 g/ha (AMARE [2]; 20 g/ha): 100%
- pest or weed control at 80 g/ha (AMARE [2]; 80 g/ha): 100%
- pest or weed control at 80 g/ha (AVEFA [3]): 80%
- pest or weed control at 20 g/ha (ECHCG [4]; 20 g/ha): 100%
- pest or weed control at 80 g/ha (ECHCG [4]; 80 g/ha): 100%
- pest or weed control at 20 g/ha (MATIN [5]; dosage 20 g/ha): 90%
- pest or weed control at 80 g/ha (MATIN [5]; dosage 80 g/ha): 100%
- pest or weed control at 80 g/ha (PHBPU [6]): 90%
- pest or weed control at 20 g/ha (POLCO; dosage 20 g/ha): 80%
- pest or weed control at 80 g/ha (POLCO; dosage 80 g/ha): 90%
- pest or weed control at 20 g/ha (SETVI [7]; dosage 20 g/ha): 100%
- pest or weed control at 80 g/ha (SETVI [7]; dosage 80 g/ha): 100%
- pest or weed control at 80 g/ha (VERPE [8]): 100%
- pest or weed control at 20 g/ha (VIOTR [9]; dosage 20 g/ha): 100%
- pest or weed control at 80 g/ha (VIOTR [9]; dosage 80 g/ha): 100%
- pest or weed control at 80 g/ha (DIGSA [10]): 80%
- pest or weed control at 5 g/ha (ABUTH [11]; dosage 5 g/ha): 90%
- pest or weed control at 20 g/ha (ABUTH [11]; dosage 20 g/ha): 90%
- pest or weed control at 20 g/ha (AMARE [12]): 100%
- pest or weed control at 20 g/ha (AVEFA [13]): 90%
- pest or weed control at 5 g/ha (ECHCG [14]; dosage 5 g/ha): 90%
- pest or weed control at 20 g/ha (ECHCG [14]; dosage 20 g/ha): 90%
- pest or weed control at 5 g/ha (MATIN [15]; dosage 5 g/ha): 80%
- pest or weed control at 20 g/ha (MATIN [15]; dosage 20 g/ha): 90%
- pest or weed control at 20 g/ha (PHBPU [16]): 90%
- pest or weed control at 5 g/ha (SETVI [17]; dosage 5 g/ha): 100%
- pest or weed control at 20 g/ha (SETVI [17]; dosage 20 g/ha): 100%
- pest or weed control at 20 g/ha (VERPE [18]): 80%
- pest or weed control at 5 g/ha (VIOTR [19]; 5 g/ha): 90%
- pest or weed control at 20 g/ha (VIOTR [19]; 20 g/ha): 100%
- pest or weed control at 5 g/ha (DIGSA [20]; 5 g/ha): 100%
- pest or weed control at 20 g/ha (DIGSA [20]; 20 g/ha): 100%
